Measured values: US10342881B2, “Manganese-oxo clusters as contrast agents for magnetic resonance imaging” (Georgetown University, priority 2008, dated 2019)

Assays:
[1] = tissues outside of liver and kidney; cited from earlier work
[2] = NMR relaxivity from slope of 1/T1 or 1/T2 versus concentration; assay type: physicochemical; details: for r1 / r2: D2O and dilute acetic acid, 500 MHz
Experimental: Fresh samples for NMR measurements were prepared immediately prior to use. Both the cluster and cluster coated beads were dissolved in distilled water, and filtered via syringe filter. T1 measurements were measured using the inversion recovery pulse sequence, in a field of 300 MHz or 500 MHz, at room temperature with a least squares fit to 10 data points. The T2 was obtained using a conventional spin echo sequence on a 300 MHz spectrometer and using Carr-Purcell-Meiboom-Gill (CPMG) sequence on 500 MHz Bruker spectrometer. Relaxivity was determined from the slope of a plot of 1/T1 or 1/T2 versus concentration of Mn-12 and Mn-12 coated beads. The cluster concentration was determined by atomic absorption of Mn.

[3] = Solubility and stability of Mn-12 in water and aqueous acetic acid; assay type: physicochemical
Description: Based on simple criteria, Mn-12 appears ideal as a contrast agent.

[4] = RT, per mM cluster, listed as Mn-12

Row | stability in presence of excess carboxylic acid ([3]; aqueous acetic acid solutions, re-isolated after many hours) | Molecule | effect on T1 and T2 in tissues [1] | temperature dependence of relaxivity ([2]; 37° C. versus room temperature) | r1 ([2]; 37° C.) [mM⁻¹ s⁻¹] | r2 ([2]; 37° C.) [mM⁻¹ s⁻¹] | r1 ([2]; RT, per mM cluster) [mM⁻¹ s⁻¹] | r2 ([2]; RT, per mM cluster) [mM⁻¹ s⁻¹] | r1 [2, 4] [mM⁻¹ s⁻¹] | r2 [2, 4] [mM⁻¹ s⁻¹] | field dependence of relaxivity ([2]; measurements at 300, 400, and 500 MHz) | behaviour upon dissolution in distilled water ([3]; distilled water)
1 | – | Cc1[nH+]cc(COP(=O)([O-])[O-])c(CN(CCN(CC(=O)[O-])Cc2c(COP(=O)([O-])O)c[nH+]c(C)c2O)CC(=O)[O-])c1O.[Mn].[Na+].[Na+].[Na+] [Mn-DPDP, manganese dipyrodoxaldiphosphate] | only limited effect on T1 and T2 | – | – | – | – | – | – | – | – | –
2 | stable in aqueous acetic acid solutions | [Mn12O12(O2CCH3)16 (H2O)4] [Mn12O12Ac16] | – | decreased at higher temperatures | 2.7 ± 0.1 | 34 ± 1 | 3.0 ± 0.1 | 48 ± 1 | 3.0 ± 0.1 | 48 ± 1 | increase with higher fields | within minutes a flocculent material forms
